As a reminder, the Km is the substrate concentration at which the rate is half of its maximum. In general, kcat refers to the number of substrate molecules converted per active site and unit of time at saturation. One may read the kcat/Km as the turnover number divided by the Michaelis constant.

This note sets out measurements from patent EP1799816B1, “NOVEL LACCASE ENZYME AND USE THEREOF” (AB Enzymes Oy, priority 2004, dated 2006).

“And” between values parts separate entries of the source, which are not always exact repeats. Equal values may be shown once. Read-outs that look alike come from different tables or passages of the source.

Data set [1] concerns recombinant Thielavia arenaria TaLcc1 laccase (rTaLcc1). In kind it is biochemical. Here is the method:
Table 2. Inhibition of the Thielavia wild type laccase.
The inhibition effect of different compounds on the activity of the recombinant TaLcc1 laccase was determined as described in Example 2. Table 7. Inhibition of the recombinant Thielavia arenaria TaLcc1 laccase (rTaLcc1) activity by various compounds.

Data set [2] concerns Thielavia wild type laccase.
The nature of data set [3]: Sodium hypochlorite bleaching of different types of denim, Wascator, colour of face side of denim. As to conditions: 25 ml/l 10 % NaOCl, 15 min, 40°C, pH 11.5 - 11.9. As for the experimental part:
Different types of demin were treated with a TaLcc1 laccase product from Trichoderma strain RF5597 and DeniLite II Base from Novozymes and the results obtained were compared to hypochlorite bleaching. All together 27 pieces of different kinds of denim (whole jeans), which had been previously washed with cellulase after desizing to different abrasion levels or had been only desized with ECOSTONE® A200 (60°C, 10 min), were collected for the test (Table 15). The jeans were made of Indigo dyed denim, except the English jeans contained Indigo dyed denim with sulphur bottom. Jeans were cut in such a way that pieces from the same pair of jeans could be used for all tests.
The sodium hypochlorite bleaching was performed with Electrolux's Wascator FOM 71 CLS washer extractor using denim obtained from the same jeans as in laccase treatments under conditions described in Table 17. Sodium hydroxide was added before adding 25 ml/l of 10 % sodium hypochlorite solution (Klorite Forte, Farmos Oy) to keep the pH above 10.5 during the treatment. After draining the bleach liquor, there was one 2 minutes rinsing step with the liquor ratio of 1:20 before dechlorinating with sodium thiosulphate. After dechlorinating the denim samples were rinsed 3 times for 2 minutes with the liquor ratio of 1:20. The fabrics were dried in a tumbler. Table 17. The process parameters used in the sodium hypochlorite bleaching and dechlorinating.
The bleaching effect was evaluated by measuring the colour as reflectance values as in Example 7. […] Different looks were obtained depending on the type of the denim and cellulase treatment used. "Sulphur-bottom type" denim was the most difficult to bleach. Table 18. Colour measurements of the face side of denim treated with TaLcc1 laccase preparation (RF5597). L* indicates lightness, -b* is the blue direction, +b* is the yellow direction.

Substrate in data set [4]: COc1cc(C=NN=Cc2cc(OC)c(O)c(OC)c2)cc(OC)c1O
The data set can be described thus: Kinetic parameters (Km, kcat, kcat/Km) on laccase substrates. It counts as biochemical, Melanocarpus albomyces. As to conditions: other: substrate Syringaldazin, 25°C, buffer unclear, comparison enzyme.

Substrate in data set [5]: COc1cccc(OC)c1O
The data set is described as above. In kind it is biochemical, Melanocarpus albomyces. As to conditions: other: substrate DMP, 25°C, buffer unclear, comparison enzyme.

Where [6] appears, read: sample B1, Basic Jeans, Ecostone P1250.
Where [7] appears, read: sample E1, English jeans (sulphur bottom), desized only.
Setting [8] is: sample E2, English jeans (sulphur bottom), Ecostone NP2000.
Setting [9] is: sample E3, English jeans (sulphur bottom), Rocksoft NCE-EA.
[10] abbreviates: sample E4, English jeans (sulphur bottom), Rocksoft NCE-2X.
Where [11] appears, read: sample E5, English jeans (sulphur bottom), Ecostone L900.
Where [12] appears, read: sample E6, English jeans (sulphur bottom), Ecostone L900.
Where [13] appears, read: sample E7, English jeans (sulphur bottom), Ecostone L900.
[14] abbreviates: sample L1, Lee Cooper jeans, desized only.
[15] abbreviates: sample L2, Lee Cooper jeans, Ecostone L.
The mark [16] stands for this setting: sample L3, Lee Cooper jeans, Biotouch C29.
Setting [17] is: sample L4, Lee Cooper jeans, Ecostone L.
Setting [18] is: sample L5, Lee Cooper jeans, Indiage Max L.
[19] abbreviates: sample L6, Lee Cooper jeans, Indiage Super L.
The mark [20] stands for this setting: sample L7, Lee Cooper jeans, Ecostone CXP500 Exper.
[21] abbreviates: sample L8, Lee Cooper jeans, Ecostone CXP experimental.
The mark [22] stands for this setting: sample L9, Lee Cooper jeans, Ecostone N400.
Setting [23] is: sample T1, Tincan jeans, desized only.
[24] abbreviates: sample T2, Tincan jeans, Ecostone N400.
Where [25] appears, read: sample T3, Tincan jeans, Ecostone L300.
Where [26] appears, read: sample T4, Tincan jeans, Denimax 991S.
The mark [27] stands for this setting: sample W1, Warric jeans, desized only.
Where [28] appears, read: sample W2, Warric jeans, Ecostone P4500.
Setting [29] is: sample W3, Warric jeans, Indiage Max G.
Setting [30] is: sample W4, Warric jeans, Ecostone NP2000.
Setting [31] is: sample W5, Warric jeans, Ecostone L900.
[32] abbreviates: sample W6, Warric jeans, Denabraide MBL 65 E.

Turning to `O=C(O)CN(CCN(CC(=O)O)CC(=O)O)CC(=O)O` [EDTA], in data set [1] (inhibitor 10 mM, ABTS as substrate), the “Inhibition (%) of laccase rTaLcc1” value is listed as 5%. In addition, the “Inhibition(%) wt TaLcc1” value in data set [2] (inhibitor 10 mM, 2 mM ABTS, 25 mM succinate buffer pH 4.5) is reported as 0%.
On to `[Cl-].[Na+]` [NaCl], for which the “Inhibition (%) of laccase rTaLcc1” value in data set [1] was 0%. Besides, the “Inhibition(%) wt TaLcc1” value in data set [2] (pH 4.5) was 35% and 42%.
For the molecule `[N-]=[N+]=[N-].[Na+]` [NaN3], the “Inhibition (%) of laccase rTaLcc1” value in data set [1] is 95%.
Take `OCl` [sodium hypochlorite]: the “After laccase Treatment L*” value in data set [3] (setting [6]) stood at 40.62; in data set [3] (setting [7]), 21.91; in data set [3] (setting [8]), 33.30; in data set [3] (setting [9]) it was 34.13; in data set [3] (setting [10]), 35.83; in data set [3] (setting [11]), 33.85. The “After laccase Treatment L*” value in data set [3] (setting [12]) is on record as 30.61; in data set [3] (setting [13]), 32.36; in data set [3] (setting [14]), 31.23; in data set [3] (setting [15]) it was 44.11; in data set [3] (setting [16]) it was 39.71; in data set [3] (setting [17]) it was 40.63. For the same molecule, the “After laccase Treatment L*” value was determined as 39.47 in data set [3] (setting [18]); 41.50 in data set [3] (setting [19]); 37.91 in data set [3] (setting [20]); 40.74 in data set [3] (setting [21]); 40.82 in data set [3] (setting [22]); 33.97 in data set [3] (setting [23]). The “After laccase Treatment L*” value in data set [3] (setting [24]) was determined as 34.38; in data set [3] (setting [25]), 40.33; in data set [3] (setting [26]), 37.66; in data set [3] (setting [27]), 27.75; in data set [3] (setting [28]) it was 39.35; in data set [3] (setting [29]) it was 41.11. Besides, the figures for the “After laccase Treatment L*” value in data set [3] (setting [30]), in data set [3] (setting [31]) and in data set [3] (setting [32]) were 38.07, 37.12 and 36.65, respectively. Moreover, the “After laccase Treatment b*” value in data set [3] (setting [6]) is given as -17.37; in data set [3] (setting [7]) it was -15.03; in data set [3] (setting [8]), -16.43; in data set [3] (setting [9]), -16.73; in data set [3] (setting [10]) it was -16.86; in data set [3] (setting [11]), -16.48. Moreover, the “After laccase Treatment b*” value in data set [3] (setting [12]) is -16.65; in data set [3] (setting [13]), -16.75; in data set [3] (setting [14]), -20.83; in data set [3] (setting [15]), -18.60; in data set [3] (setting [16]) it was -19.67; in data set [3] (setting [17]), -19.25. Moreover, the “After laccase Treatment b*” value in data set [3] (setting [18]) is -19.48; in data set [3] (setting [19]) it was -18.68; in data set [3] (setting [20]), -19.85; in data set [3] (setting [21]), -19.12; in data set [3] (setting [22]) it was -18.82; in data set [3] (setting [23]) it was -17.95. Also, the “After laccase Treatment b*” value in data set [3] (setting [24]) is on record as -18.22; in data set [3] (setting [25]), -18.30; in data set [3] (setting [26]) it was -18.58; in data set [3] (setting [27]) it was -18.76; in data set [3] (setting [28]), -17.39; in data set [3] (setting [29]), -16.79. The “After laccase Treatment b*” value is given as -17.33 in data set [3] (setting [30]), -18.03 in data set [3] (setting [31]) and -17.95 in data set [3] (setting [32]). The “Increase of L*” value in data set [3] (setting [6]) was determined as 12.27; in data set [3] (setting [7]) it was 5.15; in data set [3] (setting [8]) it was 7.36; in data set [3] (setting [9]) it was 9.40; in data set [3] (setting [10]), 9.28; in data set [3] (setting [11]) it was 9.28. For the same molecule, the “Increase of L*” value came out at 8.41 in data set [3] (setting [12]); 9.62 in data set [3] (setting [13]); 10.69 in data set [3] (setting [14]); 12.97 in data set [3] (setting [15]); 11.26 in data set [3] (setting [16]); 11.48 in data set [3] (setting [17]). The “Increase of L*” value came to 11.47 in data set [3] (setting [18]); 12.42 in data set [3] (setting [19]); 11.15 in data set [3] (setting [20]); 11.98 in data set [3] (setting [21]); 11.91 in data set [3] (setting [22]); 8.95 in data set [3] (setting [23]). For the same molecule, the “Increase of L*” value in data set [3] (setting [24]) was determined as 6.73; in data set [3] (setting [25]), 11.24; in data set [3] (setting [26]), 10.10; in data set [3] (setting [27]) it was 10.17; in data set [3] (setting [28]), 13.76; in data set [3] (setting [29]), 12.99. In addition, the “Increase of L*” value in data set [3] (setting [30]) is given as 12.29; in data set [3] (setting [31]), 13.40; in data set [3] (setting [32]), 12.90.

B1: Melanocarpus albomyces laccase MaL (Melanocarpus albomyces) (protein)
chain: EPTCNTPSNRACWSDGFDINTDYEVSTPDTGVTQSYVFNLTEVDNWMGPDGVVKEKVMLINGNIMGPNIVANWGDTVEVTVINNLVTNGTSIHWHGIHQKDTNLHDGANGVTECPIPPKGGQRTYRWRARQYGTSWYHSHFSAQYGNGVVGTIQINGPASLPYDIDLGVFPITDYYYRAADDLVHFTQNNAPPFSDNVLINGTAVNPNTGEGQYANVTLTPGKRHRLRILNTSTENHFQVSLVNHTMTVIAADMVPVNAMTVDSLFLAVGQRYDVVIDASRAPDNYWFNVTFGGQAACGGSLNPHPAAIFHYAGAPGGLPTDEGTPPVDHQCLDTLDVRPVVPRSVPVNSFVKRPDNTLPVALDLTGTPLFVWKVNGSDINVDWGKPIIDYILTGNTSYPVSDNIVQVDAVDQWTYWLIENDPEGPFSLPHPMHLHGHDFLVLGRSPDVPAASQQRFVFDPAVDLARLNGDNPPRRDTTMLPAGGWLLLAFRTDNPGAWLFHCHIAWHVSGGLSVDFLERPADLRQRISQEDEDDFNRVCDEWRAYWPTNPYPKIDSGL
For B1, in data set [4], the Michaelis-Menten constant (Km) worked out at 1.3 µM, the catalytic constant (kcat) came out at 78.5 s⁻¹ and the kcat/Km was 6e+07 M⁻¹ s⁻¹. In data set [5], the Km is on record as 5 µM, the kcat amounted to 69.33 s⁻¹ and the specificity constant (kcat/Km) was determined as 1.35e+07 M⁻¹ s⁻¹.
